Measured values published in US20130244999A1, “Substituted Heterocyclic Compounds” (Incyte Corporation, priority 2008, published 2013).

These compounds were tested against T1, histamine H4 receptor (Homo sapiens, UniProt Q9H3N8) (assay: Inhibition of histamine H4 receptor (Table A1; H4 membrane binding assay)). Settings: not given.
T1 construct: expressed in transfected cells; host or cells: HEK293SFM cells (membrane preparation)
Experimental: Recombinant HEK293SFM cells expressing human H1, H2, H3, H4 or mouse H4 were harvested (Packard Filtermate Harvester) in ice-cold Tris-HCl, (50 mM, pH 7.5, Sigma) with protease inhibitors (Roche) and homogenized with a Polytron homogenizer. The homogenate was centrifuged for 5 minutes at 1000 g to remove nuclei and unbroken cells. The supernatant was centrifuged at 50000 g for 30 minutes, and the resulting pellet was re-suspended in ice-cold Tris-HCl (50 mM, pH 7.5). […] Nonspecific binding was determined by inclusion of 1000× unlabeled ligands. The bound radioactivity was separated by filtration through polyethyleneimine-treated GF/B filters (Perkin Elmer). The filters were washed eight times with ice-cold Tris-HCl (50 mM, pH 7.5), and radioactivity retained on the filters was measured by liquid scintillation counting. The binding data were evaluated with Prism. […]

| inhibition at 1 µM | SMILES |
| --- | --- |
| 52% | CC1Cc2ccc(-c3ccn(CCO)n3)cc2CN1c1cc(N2CCN(C)CC2)nc(N)n1 (single isomer, unassigned) [Example 84B, 2-(3-{2-[2-Amino-6-(4-methylpiperazin-1-yl)pyrimidin-4-yl]-3-methyl-1,2,3,4-tetrahydroisoquinolin-7-yl}-1H-pyrazol-1-yl)ethanol] |
| 69% | CNC(=O)c1cc(-c2ccc3c(c2)CN(c2cc(N4CCN(C)CC4)nc(N)n2)C(C)C3)cn1C (single isomer, unassigned) [Example 87B, 4-{2-[2-Amino-6-(4-methylpiperazin-1-yl)pyrimidin-4-yl]-3-methyl-1,2,3,4-tetrahydroisoquinolin-7-yl}-N,1-dimethyl-1H-pyrrole-2-carboxamide] |
| 74% | CCNC(=O)c1cc(-c2ccc3c(c2)CN(c2cc(N4CCN(C)CC4)nc(N)n2)C(C)C3)cn1C (single isomer, unassigned) [Example 88B, 4-{2-[2-Amino-6-(4-methylpiperazin-1-yl)pyrimidin-4-yl]-3-methyl-1,2,3,4-tetrahydroisoquinolin-7-yl}-N-ethyl-1-methyl-1H-pyrrole-2-carboxamide] |
| 67% | CC1Cc2ccc(-c3cc(C(=O)N(C)C)n(C)c3)cc2CN1c1cc(N2CCN(C)CC2)nc(N)n1 (single isomer, unassigned) [Example 89B, 4-{2-[2-Amino-6-(4-methylpiperazin-1-yl)pyrimidin-4-yl]-3-methyl-1,2,3,4-tetrahydroisoquinolin-7-yl}-N,1N,1-trimethyl-1H-pyrrole-2-carboxamide] |
| 72% | CC(C)NC(=O)c1cc(-c2ccc3c(c2)CN(c2cc(N4CCN(C)CC4)nc(N)n2)C(C)C3)cn1C (single isomer, unassigned) [Example 90B, 4-{2-[2-Amino-6-(4-methylpiperazin-1-yl)pyrimidin-4-yl]-3-methyl-1,2,3,4-tetrahydroisoquinolin-7-yl}-N-isopropyl-1-methyl-1H-pyrrole-2-carboxamide] |
| 76% | CC1Cc2ccc(-c3cc(C(=O)NC4CC4)n(C)c3)cc2CN1c1cc(N2CCN(C)CC2)nc(N)n1 (single isomer, unassigned) [Example 91B, 4-{2-[2-Amino-6-(4-methylpiperazin-1-yl)pyrimidin-4-yl]-3-methyl-1,2,3,4-tetrahydroisoquinolin-7-yl}-N-cyclopropyl-1-methyl-1H-pyrrole-2-carboxamide] |

Same assay, conditions: histamine H4 receptor; "> a" = exceeds experiment limit

| IC50 | SMILES |
| --- | --- |
| 30 nM | CC1Cc2ccc(-c3ccn(CCO)n3)cc2CN1c1cc(N2CCN(C)CC2)nc(N)n1 (single isomer, unassigned) [Example 84A, 2-(3-{2-[2-Amino-6-(4-methylpiperazin-1-yl)pyrimidin-4-yl]-3-methyl-1,2,3,4-tetrahydroisoquinolin-7-yl}-1H-pyrazol-1-yl)ethanol] |
| 20 nM | CC1Cc2ccc(-c3ccn(C)n3)cc2CN1c1cc(N2CCN(C)CC2)nc(N)n1 (single isomer, unassigned) [Example 85A, 4-[3-Methyl-7-(1-methyl-1H-pyrazol-3-yl)-3,4-dihydroisoquinolin-2(1H)-yl]-6-(4-methylpiperazin-1-yl)pyrimidin-2-amine] |
| 104 nM | CC1Cc2ccc(-c3ccn(C)n3)cc2CN1c1cc(N2CCN(C)CC2)nc(N)n1 (single isomer, unassigned) [Example 85B, 4-[3-Methyl-7-(1-methyl-1H-pyrazol-3-yl)-3,4-dihydroisoquinolin-2(1H)-yl]-6-(4-methylpiperazin-1-yl)pyrimidin-2-amine] |
| 40 nM | CCn1ccc(-c2ccc3c(c2)CN(c2cc(N4CCN(C)CC4)nc(N)n2)C(C)C3)n1 (single isomer, unassigned) [Example 86A, 4-[7-(1-Ethyl-1H-pyrazol-3-yl)-3-methyl-3,4-dihydroisoquinolin-2(1H)-yl]-6-(4-methylpiperazin-1-yl)pyrimidin-2-amine] |
| 231 nM | CCn1ccc(-c2ccc3c(c2)CN(c2cc(N4CCN(C)CC4)nc(N)n2)C(C)C3)n1 (single isomer, unassigned) [Example 86B, 4-[7-(1-Ethyl-1H-pyrazol-3-yl)-3-methyl-3,4-dihydroisoquinolin-2(1H)-yl]-6-(4-methylpiperazin-1-yl)pyrimidin-2-amine] |
| 26 nM | CNC(=O)c1cc(-c2ccc3c(c2)CN(c2cc(N4CCN(C)CC4)nc(N)n2)C(C)C3)cn1C (single isomer, unassigned) [Example 87A, 4-{2-[2-Amino-6-(4-methylpiperazin-1-yl)pyrimidin-4-yl]-3-methyl-1,2,3,4-tetrahydroisoquinolin-7-yl}-N,1-dimethyl-1H-pyrrole-2-carboxamide] |
| 25 nM | CCNC(=O)c1cc(-c2ccc3c(c2)CN(c2cc(N4CCN(C)CC4)nc(N)n2)C(C)C3)cn1C (single isomer, unassigned) [Example 88A, 4-{2-[2-Amino-6-(4-methylpiperazin-1-yl)pyrimidin-4-yl]-3-methyl-1,2,3,4-tetrahydroisoquinolin-7-yl}-N-ethyl-1-methyl-1H-pyrrole-2-carboxamide] |
| 26 nM | CC1Cc2ccc(-c3cc(C(=O)N(C)C)n(C)c3)cc2CN1c1cc(N2CCN(C)CC2)nc(N)n1 (single isomer, unassigned) [Example 89A, 4-{2-[2-Amino-6-(4-methylpiperazin-1-yl)pyrimidin-4-yl]-3-methyl-1,2,3,4-tetrahydroisoquinolin-7-yl}-N,1N,1-trimethyl-1H-pyrrole-2-carboxamide] |
| 66 nM | CC(C)NC(=O)c1cc(-c2ccc3c(c2)CN(c2cc(N4CCN(C)CC4)nc(N)n2)C(C)C3)cn1C (single isomer, unassigned) [Example 90A, 4-{2-[2-Amino-6-(4-methylpiperazin-1-yl)pyrimidin-4-yl]-3-methyl-1,2,3,4-tetrahydroisoquinolin-7-yl}-N-isopropyl-1-methyl-1H-pyrrole-2-carboxamide] |
| 49 nM | CC1Cc2ccc(-c3cc(C(=O)NC4CC4)n(C)c3)cc2CN1c1cc(N2CCN(C)CC2)nc(N)n1 (single isomer, unassigned) [Example 91A, 4-{2-[2-Amino-6-(4-methylpiperazin-1-yl)pyrimidin-4-yl]-3-methyl-1,2,3,4-tetrahydroisoquinolin-7-yl}-N-cyclopropyl-1-methyl-1H-pyrrole-2-carboxamide] |
| 25 nM | CC1Cc2ccc(-c3cc(C(=O)N4CCC4)n(C)c3)cc2CN1c1cc(N2CCN(C)CC2)nc(N)n1 (single isomer, unassigned) [Example 92A, 4-[7-[5-(azetidin-1-ylcarbonyl)-1-methyl-1H-pyrrol-3-yl]-3-methyl-3,4-dihydroisoquinolin-2(1H)-yl]-6-(4-methylpiperazin-1-yl)pyrimidin-2-amine] |
| 127 nM | CC1Cc2ccc(-c3cc(C(=O)N4CCC4)n(C)c3)cc2CN1c1cc(N2CCN(C)CC2)nc(N)n1 (single isomer, unassigned) [Example 92B, 4-[7-[5-(azetidin-1-ylcarbonyl)-1-methyl-1H-pyrrol-3-yl]-3-methyl-3,4-dihydroisoquinolin-2(1H)-yl]-6-(4-methylpiperazin-1-yl)pyrimidin-2-amine] |
| 24 nM | CC1Cc2ccc(-c3cc(C(=O)N(C)CCN(C)C)n(C)c3)cc2CN1c1cc(N2CCN(C)CC2)nc(N)n1 (single isomer, unassigned) [Example 93, 4-{2-[2-Amino-6-(4-methylpiperazin-1-yl)pyrimidin-4-yl]-3-methyl-1,2,3,4-tetrahydroisoquinolin-7-yl}-N-[2-(dimethylamino)ethyl]-N,1-dimethyl-1H-pyrrole-2-carboxamide] |
| 30 nM | CC1Cc2ccc(-c3cc(C(=O)N4CCC(N(C)C)C4)n(C)c3)cc2CN1c1cc(N2CCN(C)CC2)nc(N)n1 (single isomer, unassigned) [Example 94, 4-[7-(5-{[3-(Dimethylamino)pyrrolidin-1-yl]carbonyl}-1-methyl-1H-pyrrol-3-yl)-3-methyl-3,4-dihydroisoquinolin-2(1H)-yl]-6-(4-methylpiperazin-1-yl)pyrimidin-2-amine] |
| 35 nM | CC1Cc2ccc(-c3cnn(C4CCOCC4)c3)cc2CN1c1cc(N2CCN(C)CC2)nc(N)n1 (single isomer, unassigned) [Example 95A, 4-(4-methylpiperazin-1-yl)-6-[3-methyl-7-[1-(tetrahydro-2H-pyran-4-yl)-1H-pyrazol-4-yl]-3,4-dihydroisoquinolin-2(1H)-yl]pyrimidin-2-amine] |
| 26 nM | CC1Cc2ccc(-c3cnn(CCC#N)c3)cc2CN1c1cc(N2CCN(C)CC2)nc(N)n1 (single isomer, unassigned) [Example 96A, 3-(4-{2-[2-amino-6-(4-methylpiperazin-1-yl)pyrimidin-4-yl]-3-methyl-1,2,3,4-tetrahydroisoquinolin-7-yl}-1H-pyrazol-1-yl)propanenitrile] |
| 352 nM | CC1Cc2ccc(-c3cnn(CCC#N)c3)cc2CN1c1cc(N2CCN(C)CC2)nc(N)n1 (single isomer, unassigned) [Example 96B, 3-(4-{2-[2-Amino-6-(4-methylpiperazin-1-yl)pyrimidin-4-yl]-3-methyl-1,2,3,4-tetrahydroisoquinolin-7-yl}-1H-pyrazol-1-yl)propanenitrile] |
| 44 nM | CC1Cc2ccc(-c3cnn(CC4(C#N)CC4)c3)cc2CN1c1cc(N2CCN(C)CC2)nc(N)n1 (single isomer, unassigned) [Example 97A, 1-[(4-{2-[2-amino-6-(4-methylpiperazin-1-yl)pyrimidin-4-yl]-3-methyl-1,2,3,4-tetrahydroisoquinolin-7-yl}-1H-pyrazol-1-yl)methyl]cyclopropanecarbonitrile] |
